Laboratory results published in patent US20250354185A1, “BLUE PIGMENT AND BIOSYNTHESIS METHOD THEREOF” (VERTEXYN BIOWORKS CO., LTD., priority 2024, published 2025).

Tests used:
Assay type in all cases: physicochemical
[1] = Comparison of colors of solutions in water (ddH2O); conditions: 1 mg dissolved with 10 mL of ddH2O; visual observation
Experimental: 1 mg of an indigoidine standard was weighed and dissolved with 10 mL of ddH2O to produce a solution of indigoidine in ddH2O. 1 mg of N-acetyl-indigoidine purified in Example 4 was weighed and dissolved with 10 mL of ddH2O to produce a solution of N-acetyl-indigoidine in ddH2O. A color difference between the solution of indigoidine in ddH2O and the solution of N-acetyl-indigoidine in ddH2O was observed, and results were shown in FIG. 17A and FIG. 17B. […] It can be seen that N-acetyl-indigoidine has a more authentic color than indigoidine.

[2] = Ultraviolet-visible absorption spectrum of HPLC product peaks; conditions: HPLC peaks of experimental group 5 (8.8 min indigoidine, 9.9 min N-acetyl-indigoidine)
Experimental: Wavelength: 600 nm. Flow rate: 1.0 mL/min. Sample solvent: DMSO. Injection volume: 10 μL. Column temperature: 35° C. Running time: 18 min.
Experimental group 5:50 mL of a fermentation broth of the strain HG-N-Idg01 cultured according to the method in Example 2 was collected and centrifuged to produce a cell pellet. The cell pellet was resuspended with 10 mL of a catalytic solution (including 1 g/L of glutaminc, 1 g/L of N-acetylglutamine, and 50 mM of a phosphate buffer), and a reaction was allowed at 25° C. and 220 rpm for 6 h. 100 μL of a sample was collected and tested by HPLC.
FIG. 2A and FIG. 2B show the wavelengths corresponding to the maximum absorption peaks of the experimental group 5.

[3] = Comparison of colors of solutions in DMSO; conditions: 1 mg dissolved with 10 mL of DMSO; visual observation
Experimental: 1 mg of an indigoidine standard was weighed and dissolved with 10 mL of DMSO to produce a solution of indigoidine in DMSO. 1 mg of N-acetyl-indigoidine purified in Example 4 was weighed and dissolved with 10 mL of DMSO to produce a solution of N-acetyl-indigoidine in DMSO. A color difference between the solution of indigoidine in DMSO and the solution of N-acetyl-indigoidine in DMSO was observed, and results were shown in FIG. 16A and FIG. 16B. […] The solution of N-acetyl-indigoidine in DMSO has a more vibrant and brighter color than the solution of indigoidine in DMSO.

color of the solution in ddH2O [1] | wavelength corresponding to the maximum absorption peak [2] | color of the solution in DMSO [3] | Compound
blue | 584 nm | bright-blue | CC(=O)NC1=C/C(=C2/C=C(N)C(=O)NC2=O)C(=O)NC1=O [N-acetyl-indigoidine]
purple-blue | 600 nm | blue | Indigoidine
